How the values were obtained:
influenza virus = test: microbe, parasite or virus in culture; assay type: cell-based, influenza virus (MDBK or MDCK cells); conditions: unidentified influenza virus, 72 h, read-out: CPE EC50, effective concentration to achieve 50% CPE inhibition, 3 days incubation, WST-8
[1] = biological target: cap-dependent endonuclease (RNP fraction containing PB1•PB2•PA complex) (Influenza A virus, UniProt P15659); test: biochemical; conditions: RNP from A/WSN/33 virus, capped Cy3/BHQ2 30mer RNA substrate, 60 minutes at room temperature; read-out: CEN IC50

SMILES: O=C1c2c(O)c(=O)ccn2N(C2c3ccccc3CCc3ccccc32)CN1CC(F)F [Example 259]
- EC50 (influenza virus): 0.026 µM
- IC50 [1]: 0.066 µM

SMILES: CN1CC[C@@H](N2CN(C3c4ccccc4CSc4ccccc43)n3ccc(=O)c(O)c3C2=O)C1 (stereo partly drawn) [Example 287]
- EC50 (influenza virus): 0.268 µM
- IC50 [1]: 0.154 µM

SMILES: CC(C)N1CN(C2c3ccccc3CCc3ccccc32)n2cc(CF)c(=O)c(O)c2C1=O [Example 508]
- EC50 (influenza virus): 0.056 µM
- IC50 [1]: 0.036 µM

SMILES: C[C@@H](N1CN([C@H]2c3ccc(Br)cc3CSc3ccccc32)n2ccc(=O)c(O)c2C1=O)C(F)(F)F [Example 433]
- EC50 (influenza virus): 0.017 µM
- IC50 [1]: 0.014 µM

SMILES: CN1CCC(N2CN(C(c3ccccc3)c3ccccc3)n3ccc(=O)c(O)c3C2=O)CC1 [Example 225]
- EC50 (influenza virus): 0.663 µM
- IC50 [1]: 0.283 µM

SMILES: CSCC(=O)NCC1N(C(C)C)C(=O)c2c(O)c(=O)ccn2N1C1c2ccccc2CCc2ccccc21 (stereo not drawn) [Example 546]
- EC50 (influenza virus): 0.124 µM
- IC50 [1]: 0.202 µM

SMILES: COCCN1CN(C2c3ccccc3CSc3ccc(Cl)cc32)n2ccc(=O)c(O)c2C1=O (stereo not drawn) [Example 333]
- EC50 (influenza virus): 0.425 µM
- IC50 [1]: 0.021 µM

SMILES: COCCN1CN(C2c3ccccc3OCc3c(F)cccc32)n2ccc(=O)c(O)c2C1=O (stereo not drawn) [Example 405]
- EC50 (influenza virus): 0.051 µM
- IC50 [1]: 0.074 µM

SMILES: CC(C)N1CC(N2CN(C3c4ccccc4CCc4ccccc43)n3ccc(=O)c(O)c3C2=O)C1 [Example 249]
- EC50 (influenza virus): 1.89 µM
- IC50 [1]: 0.151 µM

SMILES: O=C1c2c(O)c(=O)ccn2N(C2c3ccccc3CSc3ccccc32)CN1[C@@H]1C[C@@H]1F (stereo partly drawn) [Example 323]
- EC50 (influenza virus): 0.019 µM
- IC50 [1]: 0.077 µM

SMILES: CC(C)N1CN(C2c3ccccc3CSc3ccccc32)n2cc(CF)c(=O)c(O)c2C1=O (stereo not drawn) [Example 509]
- EC50 (influenza virus): 0.014 µM
- IC50 [1]: 0.015 µM

SMILES: O=C1c2c(O)c(=O)ccn2N(C2c3ccccc3CSc3c(Cl)cccc32)CN1C1CC1 (stereo not drawn) [Example 341]
- EC50 (influenza virus): 0.027 µM
- IC50 [1]: 0.016 µM

— patent US9815835B2, “Substituted polycyclic carbamolypyridone derivative” (priority 2009, dated 2017)
